Laboratory results as given in patent US20110071180A1, “SUB-TYPE SELECTIVE AMIDES OF DIAZABICYCLOALKANES” (Targacept, Inc., priority 2008, published 2011).
Like-named read-outs stand apart in the source and are kept apart here.

Columns and labels:
α7 nAChR subtype = molecular target: T1, α7 nAChR subtype (Rattus norvegicus, UniProt Q05941); assay: Radioligand binding, [3H]MLA, rat hippocampus membranes; settings: for inhibition at 5 µM: read-out: α7 high through-put screening (HTS) result
T1 construct: The hippocampus was removed and placed in 10 volumes (weight:volume) of ice-cold preparative buffer; from tissue; host or cells: rat hippocampus membranes (female Sprague-Dawley)
Protocol: Rats (female, Sprague-Dawley), weighing 150-250 g, were maintained on a 12 h light/dark cycle and were allowed free access to water and food supplied by PMI Nutrition International, Inc. Animals were anesthetized with 70% CO2, then decapitated. Brains were removed and placed on an ice-cold platform. The hippocampus was removed and placed in 10 volumes (weight:volume) of ice-cold preparative buffer (137 mM NaCl, 10.7 mM KCl, 5.8 mM KH2PO4, 8 mM Na2HPO4, 20 mM HEPES (free acid), 5 mM iodoacetamide, 1.6 mM EDTA, pH 7.4); PMSF, dissolved in methanol to a final concentration of 100 μM, was added and the tissue suspension was homogenized by Polytron. The homogenate was centrifuged at 18,000×g for 20 min at 4° C. and the resulting pellet was re-suspended in 10 volumes of ice-cold water. After 60 min incubation on ice, a new pellet was collected by centrifugation at 18,000×g for 20 min at 4° C. The final pellet was re-suspended in 10 volumes of buffer and stored at −20° C. On the day of the assay, tissue was thawed, centrifuged at 18,000×g for 20 min, and then re-suspended in ice-cold PBS (Dulbecco's Phosphate Buffered Saline, 138 mM NaCl, 2.67 mM KCl, 1.47 mM KH2PO4, 8.1 mM Na2HPO4, 0.9 mM CaCl2, 0.5 mM MgCl2, Invitrogen/Gibco, pH 7.4) to a final concentration of approximately 2 mg protein/mL. Protein was determined by the method of Lowry et al., J. Biol. Chem. 193: 265 (1951), using bovine serum albumin as the standard.
The binding of [^3H]MLA was measured using a modification of the methods of Davies et al., Neuropharmacol. 38: 679 (1999). [^3H]MLA (Specific Activity=25-35 Ci/mmol) was obtained from Tocris. The binding of [^3H]MLA was determined using a 2 h incubation at 21° C. Incubations were conducted in 48-well micro-titre plates and contained about 200 μg of protein per well in a final incubation volume of 300 μL. The incubation buffer was PBS and the final concentration of [^3H]MLA was 5 nM. The binding reaction was terminated by filtration of the protein containing bound ligand onto glass fiber filters (GF/B, Brandel) using a Brandel Tissue Harvester at room temperature. Filters were soaked in de-ionized water containing 0.33% polyethyleneimine to reduce non-specific binding. Each filter was washed with PBS (3×1 mL) at room temperature. Non-specific binding was determined by inclusion of 50 μM non-radioactive MLA in selected wells.
The inhibition of [^3H]MLA binding by test compounds was determined by including seven different concentrations of the test compound in selected wells. Each concentration was replicated in triplicate. IC50 values were estimated as the concentration of compound that inhibited 50 percent of specific [^3H]MLA binding. Inhibition constants (Ki values), reported in nM, were calculated from the IC50 values using the method of Cheng et al., Biochem. Pharmacol. 22: 3099-3108 (1973).

rat α4β2 nAChR subtype = molecular target: T2, rat α4β2 nAChR subtype (Rattus norvegicus, UniProt P09483+P12390); assay: Radioligand binding, [3H]nicotine, rat cortex membranes; settings: [3H]nicotine 5 nM
T2 construct: The cerebral cortex was removed and placed in 20 volumes (weight:volume) of ice-cold preparative buffer; from tissue; host or cells: rat cerebral cortex membranes (female Sprague-Dawley)
Protocol: Preparation of Membranes from Rat Cortex: Rats (Female, Sprague-Dawley), weighing 150-250 g, were maintained on a 12 h light/dark cycle and were allowed free access to water and food supplied by PMI Nutrition International, Inc. Animals were anesthetized with 70% CO2, and then decapitated. Brains were removed and placed on an ice-cold platform. The cerebral cortex was removed and placed in 20 volumes (weight:volume) of ice-cold preparative buffer (137 mM NaCl, 10.7 mM KCl, 5.8 mM KH2PO4, 8 mM Na2HPO4, 20 mM HEPES (free acid), 5 mM iodoacetamide, 1.6 mM EDTA, pH 7.4); PMSF, dissolved in methanol to a final concentration of 100 μM, was added and the suspension was homogenized by Polytron. The homogenate was centrifuged at 18,000×g for 20 min at 4° C. and the resulting pellet was re-suspended in 20 volumes of ice-cold water. After 60 min incubation on ice, a new pellet was collected by centrifugation at 18,000×g for 20 min at 4° C. The final pellet was re-suspended in 10 volumes of buffer and stored at −20° C.
(§1) On the day of the assay, the frozen membranes were thawed and spun at 48,000×g for 20 min. The supernatant was decanted and discarded. The pellet was resuspended in Dulbecco's phosphate buffered saline (PBS, Life Technologies) pH 7.4 and homogenized with the Polytron for 6 seconds. Protein concentrations were determined using a Pierce BCA Protein Assay Kit, with bovine serum albumin as the standard (Pierce Chemical Company, Rockford, Ill.).
(§2) Membrane preparations (approximately 50 μg for human and 200-300 μg protein for rat α4β2) were incubated in PBS (50 μL and 100 μL respectively) in the presence of competitor compound (0.01 nM to 100 μM) and 5 nM [^3H]nicotine for 2-3 hours on ice. Incubation was terminated by rapid filtration on a multi-manifold tissue harvester (Brandel, Gaithersburg, Md.) using GF/B filters presoaked in 0.33% polyethyleneimine (w/v) to reduce non-specific binding. Tissue was rinsed 3 times in PBS, pH 7.4. Scintillation fluid was added to filters containing the washed tissue and allowed to equilibrate. Filters were then counted to determine radioactivity bound to the membranes by liquid scintillation counting (2200CA Tri-Carb LSC, Packard Instruments, 50% efficiency or Wallac Trilux 1450 MicroBeta, 40% efficiency, Perkin Elmer).
(§3) Data were expressed as disintegrations per minute (DPMs). Within each assay, each point had 2-3 replicates. The replicates for each point were averaged and plotted against the log of the drug concentration. IC50, which is the concentration of the compound that produces 50% inhibition of binding, was determined by least squares non-linear regression. Ki values were calculated using the Cheng-Prussof equation (1973): […]

human α4β2 nAChR subtype = molecular target: T3, human α4β2 nAChR subtype (Homo sapiens, UniProt P17787+P43681); assay: Radioligand binding, [3H]nicotine, membranes from SH-EP1/human α4β2 clonal cells; settings: [3H]nicotine 5 nM, SH-EP1/human α4β2 cell membranes
T3 construct: expressed in transfected cells; host or cells: SH-EP1 clonal cells expressing human α4β2
Protocol: Preparation of membranes from SH-EP1/human α4β2 clonal cells: Cell pellets from 40 150 mm culture dishes were pooled, and homogenized by Polytron (Kinematica GmbH, Switzerland) in 20 milliliters of ice-cold preparative buffer. The homogenate was centrifuged at 48,000 g for 20 minutes at 4° C. The resulting pellet was re-suspended in 20 mL of ice-cold preparative buffer and stored at −20° C.
as §1, §2, §3

[1] = [3H]MLA 5 nM, rat hippocampus membranes, read-out: α7 Ki

T3 sequence (P43681 29-627 limits assumed): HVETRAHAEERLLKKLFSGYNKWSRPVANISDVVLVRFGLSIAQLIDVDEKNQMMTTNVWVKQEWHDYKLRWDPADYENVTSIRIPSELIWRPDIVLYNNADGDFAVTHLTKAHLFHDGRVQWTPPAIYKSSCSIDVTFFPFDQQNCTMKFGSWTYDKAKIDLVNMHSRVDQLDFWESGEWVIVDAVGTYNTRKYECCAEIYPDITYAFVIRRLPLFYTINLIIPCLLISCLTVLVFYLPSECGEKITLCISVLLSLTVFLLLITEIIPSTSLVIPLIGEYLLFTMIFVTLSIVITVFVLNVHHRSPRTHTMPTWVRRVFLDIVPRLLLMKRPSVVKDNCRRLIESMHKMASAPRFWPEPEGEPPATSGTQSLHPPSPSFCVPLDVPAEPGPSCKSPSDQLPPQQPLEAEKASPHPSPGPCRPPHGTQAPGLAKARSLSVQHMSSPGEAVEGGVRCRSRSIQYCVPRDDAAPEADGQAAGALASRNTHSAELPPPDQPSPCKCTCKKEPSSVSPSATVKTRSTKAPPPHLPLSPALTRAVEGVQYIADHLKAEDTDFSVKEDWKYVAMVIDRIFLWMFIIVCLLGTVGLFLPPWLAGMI
T3 sequence (P17787 26-502): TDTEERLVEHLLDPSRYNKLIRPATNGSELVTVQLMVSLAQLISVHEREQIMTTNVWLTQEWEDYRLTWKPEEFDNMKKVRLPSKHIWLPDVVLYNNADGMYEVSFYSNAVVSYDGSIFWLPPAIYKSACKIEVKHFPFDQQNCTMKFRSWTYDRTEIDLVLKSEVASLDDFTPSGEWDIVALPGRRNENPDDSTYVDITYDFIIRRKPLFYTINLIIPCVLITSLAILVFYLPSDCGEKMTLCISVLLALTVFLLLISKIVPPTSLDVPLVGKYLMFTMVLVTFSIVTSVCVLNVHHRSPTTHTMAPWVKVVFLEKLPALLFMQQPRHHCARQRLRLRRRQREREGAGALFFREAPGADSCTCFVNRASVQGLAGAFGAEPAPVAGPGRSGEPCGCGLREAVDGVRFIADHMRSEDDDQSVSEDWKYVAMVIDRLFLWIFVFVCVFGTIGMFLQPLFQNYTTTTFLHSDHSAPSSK
T2 sequence (P09483 31-630): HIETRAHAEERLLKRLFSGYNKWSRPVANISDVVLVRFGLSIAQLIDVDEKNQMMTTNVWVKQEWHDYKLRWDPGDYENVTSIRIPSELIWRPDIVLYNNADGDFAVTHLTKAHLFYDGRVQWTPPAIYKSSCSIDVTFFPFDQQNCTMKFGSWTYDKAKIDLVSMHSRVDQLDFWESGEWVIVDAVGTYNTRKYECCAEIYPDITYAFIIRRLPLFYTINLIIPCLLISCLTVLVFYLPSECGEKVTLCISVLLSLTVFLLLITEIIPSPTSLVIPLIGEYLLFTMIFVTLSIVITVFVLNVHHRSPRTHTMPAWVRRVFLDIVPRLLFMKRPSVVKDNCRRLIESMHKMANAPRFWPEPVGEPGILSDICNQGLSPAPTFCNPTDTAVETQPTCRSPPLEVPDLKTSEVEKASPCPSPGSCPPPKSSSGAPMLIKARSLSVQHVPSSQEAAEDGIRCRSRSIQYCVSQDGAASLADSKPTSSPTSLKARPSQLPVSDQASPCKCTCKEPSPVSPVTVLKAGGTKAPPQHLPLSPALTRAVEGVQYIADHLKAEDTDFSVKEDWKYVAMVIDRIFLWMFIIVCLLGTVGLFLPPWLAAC
T2 sequence (P12390 25-500): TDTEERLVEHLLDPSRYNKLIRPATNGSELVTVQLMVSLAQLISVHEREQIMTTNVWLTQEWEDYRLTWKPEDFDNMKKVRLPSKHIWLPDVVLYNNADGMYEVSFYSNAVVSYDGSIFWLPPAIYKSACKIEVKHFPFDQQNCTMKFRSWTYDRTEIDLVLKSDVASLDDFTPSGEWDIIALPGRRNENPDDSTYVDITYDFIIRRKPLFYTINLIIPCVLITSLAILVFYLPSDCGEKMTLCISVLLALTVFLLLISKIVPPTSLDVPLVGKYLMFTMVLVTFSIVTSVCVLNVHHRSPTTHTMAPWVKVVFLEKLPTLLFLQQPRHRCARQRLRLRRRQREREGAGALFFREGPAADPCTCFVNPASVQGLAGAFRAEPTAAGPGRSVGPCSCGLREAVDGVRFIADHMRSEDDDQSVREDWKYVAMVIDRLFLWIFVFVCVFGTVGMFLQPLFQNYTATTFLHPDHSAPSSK
T1 sequence (Q05941 23-502): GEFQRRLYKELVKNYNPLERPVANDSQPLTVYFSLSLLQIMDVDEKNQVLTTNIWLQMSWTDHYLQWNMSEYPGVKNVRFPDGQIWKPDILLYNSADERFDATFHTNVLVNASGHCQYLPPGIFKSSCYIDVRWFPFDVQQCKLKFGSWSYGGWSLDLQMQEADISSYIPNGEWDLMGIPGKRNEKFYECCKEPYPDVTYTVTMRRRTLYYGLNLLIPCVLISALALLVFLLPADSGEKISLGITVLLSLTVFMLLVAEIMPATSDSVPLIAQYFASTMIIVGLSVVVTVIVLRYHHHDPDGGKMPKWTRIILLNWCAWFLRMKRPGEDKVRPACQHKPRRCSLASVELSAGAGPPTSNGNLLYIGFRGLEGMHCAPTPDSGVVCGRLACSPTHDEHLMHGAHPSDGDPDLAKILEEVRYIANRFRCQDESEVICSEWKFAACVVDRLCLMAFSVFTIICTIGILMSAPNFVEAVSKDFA

Row | SMILES | Ki (α7 nAChR subtype; α7 Ki) [µM] | Ki (rat α4β2 nAChR subtype) [µM] | Ki (human α4β2 nAChR subtype) [µM] | inhibition at 5 µM (α7 nAChR subtype) [%] | Ki (α7 nAChR subtype; [1]) [µM]
1 | O=C([C@H]1C[C@H]1F)N1CC2CNCC(C2)C1 [Example 10-92] | 0.36 | 0.0159 | 0.0073 | – | –
2 | C/C=C/CC(=O)N1CC2CNCC(C2)C1 [Example 10-66] | – | 0.0301 | 0.0167 | < 50 | –
3 | CC1(C(=O)N2CC3CNCC(C3)C2)CC1 [Example 10-70] | – | 0.874 | 0.214 | < 50 | –
4 | N#CC1(C(=O)N2CC3CNCC3C2)CC1 (stereo not drawn) [Example 10-24] | – | 0.572 | 0.274 | < 50 | –
5 | CCCC(=O)N1CC2CNCC(C2)C1 [Example 10-67] | – | 0.0081 | 0.0029 | – | 0.23
6 | CC1(C)CC1C(=O)N1CC2CNCC(C2)C1 (stereo not drawn) [Example 10-69] | – | 0.0015 | 0.001 | – | 0.377
7 | O=C([C@H]1C[C@@H]1F)N1CC2CNCC(C2)C1 [Example 10-87] | 0.592 | 0.0114 | 0.0052 | – | –
8 | O=C(C1CC(F)C1)N1CC2CNCC(C2)C1 (stereo not drawn) [Example 10-82] | – | 0.0014 | 0.0029 | – | 1.04
9 | O=C(C1CC1(F)F)N1CC2CNCC2C1 (stereo not drawn) [Example 10-18] | – | 0.0062 | 0.0021 | < 50 | –
10 | O=C(C1CC(F)C1)N1CC2CNCC2C1 (stereo not drawn) [Example 10-33] | – | 0.0072 | 0.018 | < 50 | –
11 | O=C(C1CC1(F)F)N1CC2CNCC(C2)C1 (stereo not drawn) [Example 10-68] | – | 0.0012 | 0.0011 | – | 0.143
12 | O=C(C1CCCC1)N1CC2CNCC2C1 (stereo not drawn) [Example 10-3] | – | 0.0277 | 0.0296 | < 50 | –
13 | O=C1CCCC2=C1CC(C(=O)N1CC3CNCC3C1)CC2 (stereo not drawn) [Example 10-47] | – | 0.369 | 0.419 | < 50 | –
14 | O=C(C1CC(F)(F)C1)N1CC2CNCC2C1 (stereo not drawn) [Example 10-54] | – | 0.0203 | 0.0057 | < 50 | –
15 | O=C(C1C[C@H]2C=C[C@@H]1CC2)N1CC2CNCC(C2)C1 (stereo partly drawn) [Example 10-100] | – | 0.256 | 0.0724 | < 50 | –
16 | O=C(C(F)F)N1CC2CNCC2C1 (stereo not drawn) [Example 10-9] | – | 0.0043 | 0.0317 | < 50 | –
17 | O=C(C1CC=CC1)N1CC2CNCC(C2)C1 [Example 10-77] | – | 0.0256 | 0.0125 | – | 0.054
18 | CC(C)(C)C(=O)N1CC2CNCC(C2)C1 [Example 10-57] | – | 0.112 | 0.126 | < 50 | –
19 | CC(F)(F)C(=O)N1CC2CNCC2C1 (stereo not drawn) [Example 10-40] | – | 0.0086 | 0.0098 | < 50 | –
